Data set [1] has as its target T1, Prostaglandin E synthase (Homo sapiens, UniProt O14684).
T1 sequence (O14684 whole entry): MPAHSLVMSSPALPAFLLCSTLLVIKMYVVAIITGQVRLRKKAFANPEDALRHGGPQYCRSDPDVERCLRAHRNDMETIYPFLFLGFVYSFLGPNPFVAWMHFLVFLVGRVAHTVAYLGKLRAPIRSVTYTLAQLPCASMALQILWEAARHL
Kind of data set: Inhibition of mPGES1 in rhIL-1beta-stimulated human A549 cells assessed as PGE2 level treated for 18 hrs after 30 mins pre-incubation with rhIL-1beta by EIA method. The format is cell-based.

Data set [2] concerns the target T1, Prostaglandin E synthase. Kind of data set: (§1) Inhibition of mPGES1 in LPS-induced human whole blood assessed as suppression of PGE2 response after 20 to 24 hrs by LC-MS/MS analysis. The format is tissue-based.
Data set [3] addresses T2, Prostaglandin E synthase (Homo sapiens) (UniProt O14684).
T2 sequence (whole entry): T1 sequence (O14684 whole entry)
The data set is described as §1. The format is tissue-based.

The target in data set [4] is T3, CYP3A4 (Homo sapiens, UniProt P08684). Kind of data set: Time-dependent inhibition of microsomal CYP3A4 (unknown origin) using midazolam as substrate assessed as alpha-hydroxymidazolam-d4 at 10 uM pre-incubated for 12 mins before NADPH addition formation after 30 mins by LC-MS/MS analysis. The format is ADME. The conditions noted are these: microsomes, probe midazolam.

Data set [5] addresses T1, Prostaglandin E synthase. Kind of data set: Inhibition of human microsomal PGES1 expressed in 293E cells by LC/MS/MS analysis. It counts as cell-based.
Data set [6] deals with T3, CYP3A4. Kind of data set: Inhibition of microsomal CYP3A4 (unknown origin) using bufuralol/midazolam/diclofinac as substrate assessed as 1-hydroxybufuralol maleate-d9/alpha-hydroxymidazolam-d4/[13C6]-4-hydroxydiclofinac formation at 10 uM pre-incubated for 10 mins before NADPH addition by LC-MS/MS analysis. It counts as ADME. Conditions: microsomes, probe bufuralol/midazolam/diclofinac.

The target in data set [7] is T4, Cyclooxygenase (Homo sapiens) (UniProt P35354+P23219). Kind of data set: Inhibition of COX in human whole blood assessed as decrease in TXB2 production up to 30 uM. The format is tissue-based.
Data set [8] has as its target T4, Cyclooxygenase (Homo sapiens). Kind of data set: Inhibition of COX in human A549 cells assessed as reduction in PGE2 production at 10 uM. It counts as cell-based.
The nature of data set [9]: Stability of compound at 70 degC/75% RH. The format is physicochemical.
Data set [10] can be described thus: Stability of compound at 40 degC/75% RH. It counts as physicochemical.
Data set [11] has as its target T5, Prostaglandin G/H synthase 2 (Homo sapiens) (UniProt P35354).
T5 sequence (whole entry): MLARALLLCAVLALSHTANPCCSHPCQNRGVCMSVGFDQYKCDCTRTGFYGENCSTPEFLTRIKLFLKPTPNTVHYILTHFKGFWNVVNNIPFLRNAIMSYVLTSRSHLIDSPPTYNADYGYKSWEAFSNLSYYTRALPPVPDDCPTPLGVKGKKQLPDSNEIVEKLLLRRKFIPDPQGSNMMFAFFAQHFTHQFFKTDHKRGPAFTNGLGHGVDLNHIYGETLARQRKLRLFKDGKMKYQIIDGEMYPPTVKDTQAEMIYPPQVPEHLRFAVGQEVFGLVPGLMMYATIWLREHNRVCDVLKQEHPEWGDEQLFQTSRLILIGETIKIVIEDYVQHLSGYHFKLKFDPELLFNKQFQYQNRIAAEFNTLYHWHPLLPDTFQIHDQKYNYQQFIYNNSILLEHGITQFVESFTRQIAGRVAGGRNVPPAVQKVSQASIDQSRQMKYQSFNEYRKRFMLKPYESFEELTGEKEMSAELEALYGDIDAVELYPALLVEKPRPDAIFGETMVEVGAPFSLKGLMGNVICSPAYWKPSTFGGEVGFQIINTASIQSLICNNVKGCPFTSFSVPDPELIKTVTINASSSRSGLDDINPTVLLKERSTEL
Kind of data set: Inhibition of COX2 (unknown origin) at 30 uM.

For another data set, the system named is Plasma. Kind of data set: Plasma concentration in beagle dog at 2 mg/kg, po after. The format is ADME, organism-based, Canis lupus familiaris. The conditions noted are these: in vivo.
Data set [12] can be described thus: Oral bioavailability in beagle dog at 0.5 mg/kg after 0.25 to 24 hrs by LC-MS/MS analysis. It counts as ADME, organism-based, Canis lupus familiaris. The conditions noted are these: in vivo.
Data set [13] concerns the target Prostaglandin G/H synthase 1 (Homo sapiens) (UniProt P23219). Kind of data set: Inhibition of COX1 (unknown origin) at 100 uM.
For data set [14], the target named is T6, hERG (Homo sapiens, UniProt Q12809). Kind of data set: Inhibition of human ERG at 100 uM.
The nature of data set [15]: Inhibition of rat microsomal PGES1 expressed in 293E cells by LC/MS/MS analysis. The format is cell-based.
Data set [16] concerns the target T6, hERG. Kind of data set: Inhibition of human ERG at 10 uM.
In data set [17] the target is T7, Prostaglandin E synthase (Canis lupus familiaris) (UniProt A0SYQ0).
T7 sequence (whole entry): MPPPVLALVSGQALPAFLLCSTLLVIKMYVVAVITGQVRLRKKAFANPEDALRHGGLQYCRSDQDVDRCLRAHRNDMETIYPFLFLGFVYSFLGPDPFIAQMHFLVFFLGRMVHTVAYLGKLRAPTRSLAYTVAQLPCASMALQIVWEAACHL
Kind of data set: (§2) Inhibition of mPGES1 in LPS-induced dog whole blood assessed as suppression of PGE2 response pre-incubated for 30 mins followed by LPS addition and measured after 5 hrs by LC-MS/MS analysis. The format is tissue-based.

The target in data set [18] is T8, Prostaglandin E synthase (Canis lupus familiaris, UniProt A0SYQ0).
T8 sequence (A0SYQ0 whole entry): T7 sequence (whole entry)
Described as §2. The format is tissue-based.

Data set [19] addresses T4, Cyclooxygenase (Homo sapiens). Kind of data set: Inhibition of COX in human A549 cells assessed as reduction in PGE2 production. The format is cell-based.
Data set [20] shares this target. Kind of data set: Inhibition of COX in human whole blood assessed as decrease in PGF2alpha production. The format is tissue-based.
The target is the same in data set [21]. Kind of data set: Inhibition of COX in human whole blood assessed as decrease in TXB2 production. It counts as tissue-based.

Data on ten compounds can be found in ChEMBL document CHEMBL3758174, “Discovery and Characterization of 2-Acylaminoimidazole Microsomal Prostaglandin E Synthase-1 Inhibitors” (J Med Chem, 2016).

Activity calls are given as the source filed them. The calls are words filed in the database; no cut-off is given here.

T4 sequence (P23219 whole entry, looked up, one chain of several): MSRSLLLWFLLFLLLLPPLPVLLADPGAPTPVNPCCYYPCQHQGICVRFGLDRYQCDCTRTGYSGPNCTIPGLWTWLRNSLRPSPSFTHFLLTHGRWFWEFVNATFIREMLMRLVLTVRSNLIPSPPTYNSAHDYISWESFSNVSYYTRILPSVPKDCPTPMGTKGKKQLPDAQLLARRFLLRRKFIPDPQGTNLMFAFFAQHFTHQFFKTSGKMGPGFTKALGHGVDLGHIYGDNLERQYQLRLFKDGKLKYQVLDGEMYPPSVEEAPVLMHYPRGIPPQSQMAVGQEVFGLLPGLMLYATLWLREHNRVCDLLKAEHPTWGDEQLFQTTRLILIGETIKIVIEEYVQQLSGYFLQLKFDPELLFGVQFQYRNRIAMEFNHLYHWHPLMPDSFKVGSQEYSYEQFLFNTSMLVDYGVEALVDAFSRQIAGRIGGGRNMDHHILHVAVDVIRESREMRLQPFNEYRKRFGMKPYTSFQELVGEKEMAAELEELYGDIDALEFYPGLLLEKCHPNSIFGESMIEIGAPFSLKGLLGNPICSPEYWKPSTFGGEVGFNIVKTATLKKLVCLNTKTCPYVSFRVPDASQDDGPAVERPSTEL
T3 sequence (P08684 whole entry): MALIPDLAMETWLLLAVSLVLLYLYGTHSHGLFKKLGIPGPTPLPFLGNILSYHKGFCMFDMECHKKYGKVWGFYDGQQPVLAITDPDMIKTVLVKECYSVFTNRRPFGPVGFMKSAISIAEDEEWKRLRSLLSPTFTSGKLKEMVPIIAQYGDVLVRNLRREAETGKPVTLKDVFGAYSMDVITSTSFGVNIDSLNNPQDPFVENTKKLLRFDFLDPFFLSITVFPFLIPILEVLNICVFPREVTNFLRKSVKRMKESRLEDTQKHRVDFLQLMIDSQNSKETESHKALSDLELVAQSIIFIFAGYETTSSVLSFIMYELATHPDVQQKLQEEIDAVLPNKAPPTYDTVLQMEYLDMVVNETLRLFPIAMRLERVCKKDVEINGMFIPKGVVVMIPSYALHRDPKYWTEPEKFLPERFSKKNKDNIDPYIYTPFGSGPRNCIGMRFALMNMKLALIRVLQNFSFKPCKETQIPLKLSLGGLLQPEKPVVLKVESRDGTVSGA
T6 sequence (Q12809 whole entry): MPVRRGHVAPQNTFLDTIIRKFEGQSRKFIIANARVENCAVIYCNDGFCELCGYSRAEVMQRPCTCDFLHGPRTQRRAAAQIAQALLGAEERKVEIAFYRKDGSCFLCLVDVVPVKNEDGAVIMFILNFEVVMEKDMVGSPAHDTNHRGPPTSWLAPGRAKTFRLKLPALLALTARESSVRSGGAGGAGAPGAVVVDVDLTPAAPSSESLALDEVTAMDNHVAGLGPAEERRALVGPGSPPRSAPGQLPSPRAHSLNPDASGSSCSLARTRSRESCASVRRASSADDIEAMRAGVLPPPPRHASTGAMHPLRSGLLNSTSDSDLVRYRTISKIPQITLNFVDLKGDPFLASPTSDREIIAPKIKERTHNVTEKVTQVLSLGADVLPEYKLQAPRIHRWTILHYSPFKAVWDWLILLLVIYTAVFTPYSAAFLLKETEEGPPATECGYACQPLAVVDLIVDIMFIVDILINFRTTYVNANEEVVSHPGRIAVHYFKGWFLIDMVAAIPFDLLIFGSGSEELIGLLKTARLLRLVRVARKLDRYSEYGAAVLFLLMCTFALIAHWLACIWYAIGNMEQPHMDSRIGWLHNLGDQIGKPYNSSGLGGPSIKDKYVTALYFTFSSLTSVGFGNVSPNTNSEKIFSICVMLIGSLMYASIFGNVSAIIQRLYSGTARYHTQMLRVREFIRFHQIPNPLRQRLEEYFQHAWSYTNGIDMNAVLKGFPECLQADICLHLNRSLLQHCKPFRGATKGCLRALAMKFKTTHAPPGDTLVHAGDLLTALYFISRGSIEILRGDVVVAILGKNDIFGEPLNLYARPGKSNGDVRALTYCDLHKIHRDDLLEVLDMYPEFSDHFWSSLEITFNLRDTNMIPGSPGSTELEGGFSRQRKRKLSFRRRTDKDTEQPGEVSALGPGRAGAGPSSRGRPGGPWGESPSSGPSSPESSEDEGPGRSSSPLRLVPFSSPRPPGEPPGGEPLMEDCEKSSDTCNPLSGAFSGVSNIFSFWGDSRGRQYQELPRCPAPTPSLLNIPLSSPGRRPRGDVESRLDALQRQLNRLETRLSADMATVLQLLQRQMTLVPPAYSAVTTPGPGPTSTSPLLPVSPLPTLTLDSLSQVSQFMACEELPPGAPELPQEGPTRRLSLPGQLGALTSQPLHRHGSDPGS
Chain of Prostaglandin G/H synthase 1 (Homo sapiens) (P23219 whole entry): as the sequence (P23219 whole entry, looked up, one chain of several) above

Turning to `CCC(=O)NCc1cnc(C(F)F)c(C(=O)Nc2nc(C)c(-c3ccc(C(F)(F)F)cc3)[nH]2)c1`, the half-maximal inhibitory concentration (IC50) at Prostaglandin E synthase [1] worked out at 0.098 µM; at Prostaglandin E synthase [2], 0.374 µM; against Prostaglandin E synthase [5] it was 0.0103 µM. Also, the concentration for an effect of 80% (IC80) in [3] is 0.991 µM. Besides, the inhibition at 0.5 h, 10 µM at CYP3A4 [4] stood at 15%. On CYP3A4 [6], the inhibition at 10 µM was 0%.

With `CCC(C)(C)C(=O)NCc1ccc(Cl)c(C(=O)Nc2ncc[nH]2)c1`, the inhibition entry in data set [7] and in data set [8] was “inactive” throughout. Besides, the half-maximal inhibitory concentration (IC50) on Prostaglandin E synthase [1] was found to be 1.23 µM; at Prostaglandin E synthase [2], 0.853 µM; at Prostaglandin E synthase [5], 0.385 µM. Further, the IC80 in data set [3] is 9.37 µM.

Consider `Cc1nc(NC(=O)c2cc(CNC(=O)C(C)C)cnc2C(F)F)[nH]c1-c1ccc(C(F)(F)F)cc1.O=P(O)(O)O`, for which the Stability worked out at 2 weeks in data set [9] and 4 weeks in data set [10].

With `CC(=O)NCc1cnc(C(F)F)c(C(=O)Nc2nc(C)c(-c3ccc(C(F)(F)F)cc3)[nH]2)c1`, the half-inhibitory concentration (IC50) on Prostaglandin E synthase [1] worked out at 0.72 µM; at Prostaglandin E synthase [5], 0.074 µM. The inhibition at 0.5 h, 10 µM at CYP3A4 [4] amounted to 8%. For the same compound, the inhibition at 10 µM on CYP3A4 [6] was 19%.

In the case of `Cc1ccc(CNC(=O)C(C)(C)C)cc1C(=O)Nc1ncc[nH]1`, the inhibition result in data set [7] and in data set [8] was “inactive” throughout. Further, the IC50 amounted to 4.62 µM at Prostaglandin E synthase [1], 2.43 µM on Prostaglandin E synthase [2] and 3.11 µM against Prostaglandin E synthase [5]. Moreover, the IC80 in [3] was determined as 9.08 µM. Besides, the inhibition in [11] worked out at 16%.

`Cc1cc(Cl)c(C(=O)Nc2ncc[nH]2)cc1CNC(=O)C(C)C`: the inhibition result in [7] and in [8] was “inactive” in each case. Also, the IC50 on Prostaglandin E synthase [1] was 8.85 µM; on Prostaglandin E synthase [2], 13 µM; on Prostaglandin E synthase [5], 2.32 µM. In data set [3], the IC80 turned out to be 132 µM.

With `CC(C)(C)C(=O)NCc1ccc(Cl)c(C(=O)Nc2ncc[nH]2)c1` [LY-3031207], the concentration with Plasma was above 1 µM. The bioavailability in data set [12] came to 60%. The inhibition result in data set [7] and in data set [8] was “inactive” in each case. The inhibition in data set [13] was 9%. The concentration for an effect of 80% (IC80) stood at 2.44 µM in data set [3] and 1.84 µM in data set [17]. Besides, the inhibition at 100 µM against hERG [14] is 14%. For the same compound, the results for the 50% inhibitory concentration (IC50) (in data set [15]; at Prostaglandin E synthase [18]) were above 1000 µM and 0.555 µM, respectively. Besides, at hERG [16], the inhibition at 10 µM was -4%.

For `CC(C)(C)C(=O)NCc1ccc(C(F)F)c(C(=O)Nc2ncc[nH]2)c1`, the inhibition entry in data set [7] and in [8] was “inactive” each time. Further, the results for the IC50 on Prostaglandin E synthase [1], on Prostaglandin E synthase [2] and against Prostaglandin E synthase [5] were 3.25 µM, 1.43 µM and 0.676 µM, respectively. Further, in data set [3], the IC80 was found to be 33.7 µM.

Turning to `CC(C)C(=O)NCc1ccc(C(F)F)c(C(=O)Nc2ncc(-c3ccc(Cl)cc3)[nH]2)c1`, the IC50 at Prostaglandin E synthase [1] is 0.019 µM; on Prostaglandin E synthase [2] it was 0.338 µM; against Prostaglandin E synthase [5], below 0.003 µM. Besides, in data set [3], the IC80 is 0.994 µM. Further, the inhibition entry in data set [19], in data set [20] and in data set [21] was “inactive” each time. Moreover, at CYP3A4 [4], the inhibition at 0.5 h, 10 µM was determined as 75%. Besides, the inhibition at 10 µM on CYP3A4 [6] is 44%.

On to `N#Cc1cccc(C#N)c1-c1nc2c3ccc(Cl)cc3c3ccccc3c2[nH]1`, for which the inhibition at 10 µM at CYP3A4 [6] was 32%.

Usually IC50 stands for the concentration needed to halve the response being measured. As a reminder, the IC80 is the concentration needed for an effect of 80%. A word on the inhibition: it is the change of the read-out against control, counted positive when it falls. One may read the bioavailability as dose-corrected exposure relative to a reference, in per cent. Low values mean little systemic uptake, high ones much systemic uptake.
